# According to patent publication US10149835B2, “Isoxazole derivatives as FXR agonists and methods of use thereof” (Enanta Pharmaceuticals, Inc., priority 2016, dated 2018):
# Biological target: human FXR (NR1H4) (Homo sapiens (Human), UniProt Q96RI1)
# Assay: Human FXR (NR1H4) Assay (Gal4 promoter driven luciferase reporter, Indigo Bioscience kit)
# Format: cell-based
# Settings: CHO reporter cells expressing human NR1H4; for Efficacy (%): normalized to CDCA set as 100%; for EC50: 22 hours incubation, potency ranges
# Procedure: To a solution of compound (1) (211 mg, 0.37 mmol) in toluene (3 ml) was added dropwise triethylamine (0.10 ml, 0.74 mmol) and diphenyl phosphorazidate (0.087 ml, 0.40 mmol). The mixture was stirred at 23° C. for 1 h, at 85° C. for 3.5 h, and cooled to 23° C. A solution of N,N-dimethylsulfamide (68 mg, 0.55 mmol) in THF (0.5 mL) and DBU (83 μl, 0.55 mmol) was added. The mixture was stirred at 23° C. for 16 h, quenched with 1 M HCl, and extracted with EtOAc (2×). The combined organic layers were washed with brine and concentrated in vacuo. The residue was purified by chromatography on silica gel column eluting with hexane/acetone (100/0 to 70/30, 10 min) to provide Example 7. Assays Human FXR (NR1H4) Assay
# Determination of a ligand mediated Gal4 promoter driven transactivation to quantify ligand binding mediated activation of FXR. FXR Reporter Assay kit purchased from Indigo Bioscience (Catalogue number: IB00601) to determine the potency and efficacy of compound developed by Enanta that can induce FXR activation. The principle application of this reporter assay system is to quantify functional activity of human FXR. The assay utilizes non-human mammalian cells, CHO (Chinese hamster ovary) cells engineered to express human NR1H4 protein (referred to as FXR). Reporter cells also incorporate the cDNA encoding beetle luciferase which catalyzes the substrates and yields photon emission. Luminescence intensity of the reaction is quantified using a plate-reading luminometer, Envision. Reporter Cells include the luciferase reporter gene functionally linked to an FXR responsive promoter. Thus, quantifying changes in luciferase expression in the treated reporter cells provides a sensitive surrogate measure of the changes in FXR activity. […] The assay is according to the manufacturer's instructions. In brief, the assay was performed in white, 96 well plates using final volume of 100 μl containing cells with different doses of compounds. Retrieve Reporter Cells from −80° C. storage. Perform a rapid thaw of the frozen cells by transferring a 10 ml volume of 37° C. cell recovery medium into the tube of frozen cells. Recap the tube of Reporter Cells and immediately place it in a 37° C. water bath for 5-10 minutes. Retrieve the tube of Reporter Cell Suspension from the water bath. Sanitize the outside surface of the tube with a 70% alcohol swab, and then transfer it into the cell culture hood. Dispense 90 μl of cell suspension into each well of the 96-well Assay Plate. Transfer the plate into 37° C. incubator, allowing the cells adherent to the bottom of the well. Dilute compounds in Dilution Plate (DP), and administrate to cells at Assay Plate (AP). DMSO content of the samples was kept at 0.2%. Cells were incubated for additional 22 hours before luciferase activities were measured. Thirty minutes before intending to quantify FXR activity, remove Detection Substrate and Detection Buffer from the refrigerator and place them in a low-light area so that they may equilibrate to room temperature. Remove the plate's lid and discard all media contents by ejecting it into an appropriate waste container. Gently tap the inverted plate onto a clean absorbent paper towel to remove residual droplets. Cells will remain tightly adhered to well bottoms. Add 100 μl of luciferase detection reagent to each well of the assay plate. Allow the assay plate to rest at room temperature for at least 5 minutes following the addition of LDR. Set the instrument (Envision) to perform a single 5 second “plate shake” prior to reading the first assay well. Read time may be 0.5 second (500 mSec) per well.
# Sequence of human FXR (NR1H4) (Q96RI1 whole entry, the tested form may be a part): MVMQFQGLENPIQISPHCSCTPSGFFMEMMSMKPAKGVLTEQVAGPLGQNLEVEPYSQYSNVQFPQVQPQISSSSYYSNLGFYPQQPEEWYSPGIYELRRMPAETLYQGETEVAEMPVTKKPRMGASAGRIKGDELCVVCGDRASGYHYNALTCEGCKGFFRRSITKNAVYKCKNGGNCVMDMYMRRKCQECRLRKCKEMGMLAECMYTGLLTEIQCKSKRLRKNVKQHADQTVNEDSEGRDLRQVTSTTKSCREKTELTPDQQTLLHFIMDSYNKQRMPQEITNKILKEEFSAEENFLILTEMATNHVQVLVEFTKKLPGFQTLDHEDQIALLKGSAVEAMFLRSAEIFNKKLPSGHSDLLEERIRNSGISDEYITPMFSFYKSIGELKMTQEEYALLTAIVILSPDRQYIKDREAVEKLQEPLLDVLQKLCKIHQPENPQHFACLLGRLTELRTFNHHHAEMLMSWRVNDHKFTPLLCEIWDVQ
Structure (SMILES),Efficacy (%),EC50 [nM]
CN(C)S(=O)(=O)NC(=O)c1ccc2nc(N3C4CC[C@H]3C[C@H](OCc3c(-c5c(Cl)cccc5Cl)noc3C3CC3)C4)sc2c1 [Example 1],204,
O=C(NS(=O)(=O)C1CC1)c1ccc2nc(N3C4CC[C@H]3CC(OCc3c(-c5c(Cl)cccc5Cl)noc3C3CC3)C4)sc2c1 (some centres unmarked) [Example 2],204,< 100
CC(C)(C)c1ccc(S(=O)(=O)NC(=O)c2ccc3nc(N4C5CC[C@H]4CC(OCc4c(-c6c(Cl)cccc6Cl)noc4C4CC4)C5)sc3c2)cc1 (some centres unmarked) [Example 3],226,< 100
CN(C)S(=O)(=O)NC(=O)c1ccc(N2C3CC[C@H]2CC(OCc2c(-c4c(Cl)cccc4Cl)noc2C2CC2)C3)c(F)c1 (some centres unmarked) [Example 4],174,< 100
CC(C)(C)c1ccc(S(=O)(=O)NC(=O)c2ccc(N3C4CC[C@H]3CC(OCc3c(-c5c(Cl)cccc5Cl)noc3C3CC3)C4)c(F)c2)cc1 (some centres unmarked) [Example 5],168,< 100
O=C(NS(=O)(=O)C1CC1)c1ccc(N2C3CC[C@H]2CC(OCc2c(-c4c(Cl)cccc4Cl)noc2C2CC2)C3)c(F)c1 (some centres unmarked) [Example 6],170,< 100
